Assay results published in patent publication US20240293392A1, “INHIBITOR COMPOUNDS” (NeoPhore Limited, priority 2021, published 2024).

Tests used:
[1] = target: T1, recombinant N-terminal MLH1 (residues 15-340) (Homo sapiens, UniProt P40692); assay: Fluorescence Polarisation Assay for MLH1; format: binding; conditions: fluorescence polarisation probe displacement; 100 nM N-terminal MLH1, 5 nM probe compound
T1 construct: recombinant N-terminal MLH1 (residues 15-340)
T1 sequence (P40692 15-340): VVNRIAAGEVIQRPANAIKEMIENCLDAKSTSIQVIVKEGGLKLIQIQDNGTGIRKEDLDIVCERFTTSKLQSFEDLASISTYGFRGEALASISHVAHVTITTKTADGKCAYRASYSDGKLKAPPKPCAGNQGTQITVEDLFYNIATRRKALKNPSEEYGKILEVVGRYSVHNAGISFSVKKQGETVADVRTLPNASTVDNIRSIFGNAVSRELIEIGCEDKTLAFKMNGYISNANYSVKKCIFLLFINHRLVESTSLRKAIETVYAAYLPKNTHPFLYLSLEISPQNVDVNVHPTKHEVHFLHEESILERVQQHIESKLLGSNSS
Procedure, shortened: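 FP displacement assay: 100 nM MLH1 (residues 15-340) preincubated 30 min at room temperature with compound in 25 mM HEPES pH 7.5, 250 mM NaCl, 10 mM MgCl2, 0.01% Triton X-100, 5 mM DTT, then 5 nM rhodamine-labelled probe added and read immediately. Data normalised to no-inhibitor and no-enzyme controls.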

[2] = target: T2, recombinant N-terminal PMS2 (residues 1-365) (Homo sapiens, UniProt P54278); assay: Fluorescence Polarisation Assay for PMS2; format: binding; conditions: fluorescence polarisation probe displacement; 10 nM N-terminal PMS2, 5 nM probe compound; read-out: PMS2 IC50
T2 construct: recombinant N-terminal PMS2 (residues 1-365)
T2 sequence (P54278 1-365): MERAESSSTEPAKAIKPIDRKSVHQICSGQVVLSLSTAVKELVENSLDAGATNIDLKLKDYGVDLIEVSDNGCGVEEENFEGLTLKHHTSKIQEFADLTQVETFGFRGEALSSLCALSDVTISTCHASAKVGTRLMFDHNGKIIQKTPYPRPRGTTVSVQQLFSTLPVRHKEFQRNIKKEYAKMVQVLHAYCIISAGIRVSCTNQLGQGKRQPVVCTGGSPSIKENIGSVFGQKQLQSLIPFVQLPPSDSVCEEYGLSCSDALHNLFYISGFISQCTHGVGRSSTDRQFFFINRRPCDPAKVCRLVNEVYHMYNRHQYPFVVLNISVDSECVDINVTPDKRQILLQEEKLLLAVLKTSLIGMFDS
Procedure, shortened: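 Competition fluorescence polarisation with 10 nM N-terminal PMS2 and 5 nM fluorescent probe (final), read after 1 h at room temperature following 30 min compound pre-incubation. Data normalised to no-inhibitor and no-enzyme controls; single-point screening or serial dilutions for potency.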

Compound	IC50 [1] [nM]	IC50 [2] [nM]
CN1C[C@@H](Nc2cccc3c2CN(C(=O)c2c(O)cc(O)cc2OCc2ccccn2)CC3)CC1=O [Example 58, (S)-4-((2-(2,4-Dihydroxy-6-(pyridin-2-ylmethoxy)benzoyl)-1,2,3,4-tetrahydroisoquinolin-8-yl)amino)-1-methylpyrrolidin-2-one]	< 1000	> 10000
CN1C[C@H](Nc2cccc3c2CN(C(=O)c2c(O)cc(O)cc2OCc2ccccn2)CC3)CC1=O [Example 59, (R)-4-((2-(2,4-dihydroxy-6-(pyridin-2-ylmethoxy)benzoyl)-1,2,3,4-tetrahydroisoquinolin-8-yl)amino)-1-methylpyrrolidin-2-one]	< 1000	1000 to 10000
COCCOc1cc2c(c(N[C@@H]3CCOC3)c1)CN(C(=O)c1c(O)cc(O)cc1OCc1ccccc1)CC2 [Example 60, (R)-(2-(Benzyloxy)-4,6-dihydroxyphenyl)(6-(2-methoxyethoxy)-8-((tetrahydrofuran-3-yl)amino)-3,4-dihydroisoquinolin-2(1H)-yl)methanone]	< 1000	> 10000
O=C(c1c(O)cc(O)cc1OCc1ccccc1)N1CCc2nccc(N[C@H]3CCOC3)c2C1 [Example 63, (S)-(2-(Benzyloxy)-4,6-dihydroxyphenyl)(4-((tetrahydrofuran-3-yl)amino)-7,8-dihydro-1,6-naphthyridin-6(5H)-yl)methanone]	< 1000	1000 to 10000
COCCOc1cc2c(c(N[C@H]3CCOC3)c1)CN(C(=O)c1c(O)cc(O)cc1OCc1ccccc1)CC2 [Example 64, (S)-(2-(Benzyloxy)-4,6-dihydroxyphenyl)(6-(2-methoxyethoxy)-8-((tetrahydrofuran-3-yl)amino)-3,4-dihydroisoquinolin-2(1H)-yl)methanone]	< 1000	1000 to 10000
CC(=O)N1CC[C@H](Nc2cccc3c2CN(C(=O)c2c(O)cc(O)cc2OCc2ccccc2)CC3)C1 [Example 65, (S)-1-(3-((2-(2-(Benzyloxy)-4,6-dihydroxybenzoyl)-1,2,3,4-tetrahydroisoquinolin-8-yl)amino)pyrrolidin-1-yl)ethan-1-one]	< 1000	> 10000
CC(=O)N1CC[C@@H](Nc2cccc3c2CN(C(=O)c2c(O)cc(O)cc2OCc2ccccc2)CC3)C1 [Example 66, (R)-1-(3-((2-(2-(Benzyloxy)-4,6-dihydroxybenzoyl)-1,2,3,4-tetrahydroisoquinolin-8-yl)amino)pyrrolidin-1-yl)ethan-1-one]	< 1000	> 10000
CC(=O)N1CCC[C@H](Nc2cccc3c2CN(C(=O)c2c(O)cc(O)cc2OCc2ccccc2)CC3)C1 [Example 67, (S)-1-(3-((2-(2-(Benzyloxy)-4,6-dihydroxybenzoyl)-1,2,3,4-tetrahydroisoquinolin-8-yl)amino)piperidin-1-yl)ethan-1-one]	1000 to 10000	> 10000
CC(=O)N1CCC[C@@H](Nc2cccc3c2CN(C(=O)c2c(O)cc(O)cc2OCc2ccccc2)CC3)C1 [Example 68, (R)-1-(3-((2-(2-(benzyloxy)-4,6-dihydroxybenzoyl)-1,2,3,4-tetrahydroisoquinolin-8-yl)amino)piperidin-1-yl)ethan-1-one]	< 1000	> 10000
CC(=O)N1CCC(Nc2cccc3c2CN(C(=O)c2c(O)cc(O)cc2OCc2ccccc2)CC3)CC1 [Example 69, 1-(4-((2-(2-(Benzyloxy)-4,6-dihydroxybenzoyl)-1,2,3,4-tetrahydroisoquinolin-8-yl)amino)piperidin-1-yl)ethan-1-one]	1000 to 10000	> 10000
CN1CC(Nc2cccc3c2CN(C(=O)c2c(O)cc(O)cc2OCc2ccccc2)CC3)CCC1=O (stereo not shown) [Example 70, 5-((2-(2-(Benzyloxy)-4,6-dihydroxybenzoyl)-1,2,3,4-tetrahydroisoquinolin-8-yl)amino)-1-methylpiperidin-2-one]	< 1000	> 10000
